# Reference: patent US20230110689A1, “AGONIST COMBINATION” (Zealand Pharma A/S, priority 2020, published 2023)
# Starred links: 1 amine or outer side, 2 acyl side, 3 side chain; linkers in the order of their positions; H or OH if unused. Non-standard residues stand in square brackets, D forms with d. Groups on a side chain read outwards from the residue. *: point of attachment. C18 diacid = O=C(O)CCCCCCCCCCCCCCCCC(=O)*; γGlu = O=C(O)[C@H](CCC(=O)[*:2])N[*:1]; Aib = CC(C)(N)C(=O)O
# Key:
# Format in all cases: in vivo, C57BL/6J mice
# [1] = test system: Short Bowel Syndome (SBS) mice; assay: SBS mouse model: gross morphology / length of intestine on day 14; conditions: ICR mice, 30 nmol/kg once daily, FIG. 16
# Excerpt: (§1) Adult, male C57BL/6J mice with ˜30 g body weight of ˜4 months, received a 12-cm ileum and cecum resection (ICR) with jejunocolonic anastomosis (see FIG. 1, middle). The mice were then randomly assigned to either Cpd 18 or vehicle treatment As control for the abdominal surgery, the sham group was included which had laparotomy, bowel exposure, transection and end-to-end anastomosis but no resection (see FIG. 1, bottom). To prevent intestinal obstruction, all mice were switched to liquid diet 2 days before surgery and maintained on this diet until the end of the experiment. Throughout the experiment, animals were singly housed. All mice were studied with the intention to survive to day 14.
# Briefly, mice were anesthetized by i.p. injection of ketamine (100 mg/kg bw) and xylazine (15 mg/kg bw) and orally intubated and ventilated. After midline incision, the distal small bowel and the cecum were exposed and then transected 12 cm proximal to the ileocecal junction and immediately distal to the cecum. The resected bowel was removed, and the length of the specimen was measured. An end-to-end, jejuno-colonic anastomosis was created and the abdomen was closed. […]
# (§2) Mice were scored for wellbeing daily as described (Berlin et al. 2019). If the wellness score dropped to below 4 pts, or when weight loss exceeded 20%, the mouse was immediately killed and not analyzed further. […]
# [2] = test system: Short Bowel Syndome (SBS) mice; assay: Short bowel syndrome (SBS) mouse model: post operative survival, body weight and dietary intake; conditions: ICR mice
# Excerpt: as §1
# (§3) Briefly, mice were anesthetized by i.p. injection of ketamine (100 mg/kg bw) and xylazine (15 mg/kg bw) and orally intubated and ventilated. After midline incision, the distal small bowel and the cecum were exposed and then transected 12 cm proximal to the ileocecal junction and immediately distal to the cecum. The resected bowel was removed, and the length of the specimen was measured. An end-to-end, jejuno-colonic anastomosis was created and the abdomen was closed. In the sham group, laparotomy, bowel exposure, transection and end-to-end anastomosis but no resection was performed. Immediately after surgery, all mice were weighed and received 1 ml isotonic saline subcutaneously and carprofen 5 mg/kg body weight. All surgical procedures were performed by the same surgeon. Mice were kept in a heated terrarium (29° C.) for 4 h and then returned to individual cages with free access to liquid food and water. The liquid diet was provided in feeding tubes. Mice were allowed to recover for a day after surgery, and then injected once daily with 30 nmol/kg body weight of Cpd 18. […]
# as §2
# Body weight (FIG. 6) and food consumption (FIG. 7) was measured daily. […]
# [3] = test system: Short Bowel Syndome (SBS) mice; assay: SBS mouse model: histological morphometry of intestine (mucosal height, bowel diameter); conditions: ICR mice, 30 nmol/kg once daily, vs sham
# Excerpt: as §1
# Briefly, mice were anesthetized by i.p. injection of ketamine (100 mg/kg bw) and xylazine (15 mg/kg bw) and orally intubated and ventilated. […] The resected bowel was removed, and the length of the specimen was measured. […]
# as §2
# Sham and SBS mice were prepared as described under Preparation of Short Bowel Syndome (SBS) mice. […] Bowel diameter was measured from the same samples from serosa to serosa in two dimensions. […]
# [4] = test system: Short Bowel Syndome (SBS) mice; assay: SBS mouse model: jejunum weight (wet weight, dry weight, water content per 2 cm); conditions: ICR mice, 30 nmol/kg once daily
# Excerpt: as §1
# as §3, with “tubes.” for “tubes. Mice were allowed to recover for a day after surgery, and then injected once daily with 30 nmol/kg body weight of Cpd 18.”
# as §2
# Sham and SBS mice were prepared as described under Preparation of Short Bowel Syndome (SBS) mice. […] Water content and dry weight was then derived and calculated.
substance,measurement,setting,value
H-H[Aib]EGSFTSELATILDK([γGlu-C18 diacid])QAARDFIAWLIQHKITD-OH [Cpd 18],bowel length and thickness,"[1]; day 14, representative example vs sham",An increase in bowel length and thickness
same,solid feces in intestine,"[1]; day 14, representative example, absent in vehicle",solid feces in the sham and Cpd 18 treated intestine
same,survival rate after 14 days,"[2]; 30 nmol/kg body weight once daily from day 1 after surgery, FIG. 5",74%
same,dietary intake,"[2]; 30 nmol/kg once daily, liquid diet, measured daily, vs vehicle, FIG. 7",lower in the Cpd 18 treated animals from day 2 onwards as compared to vehicle
same,relative body weight (relative to initial weight),"[2]; 30 nmol/kg once daily, measured daily to day 14, vs vehicle, FIG. 6",differed from the vehicle group after six days onwards by starting to increase towards the initial weight
same,mucosal height,"[3]; day 14, crypt base to villus tip, FIG. 8",approximately double the mucosal height of sham treated animals
same,bowel diameter,"[3]; day 14, serosa to serosa, FIG. 9",approximately double the bowel diameter of sham treated animals
same,dry weight per 2 cm of intestine,"[4]; day 14, desiccated sections, FIG. 11",the same increases in mass were measured
same,wet weight of 2 cm sections of intestine,"[4]; day 14, proximal jejunum, FIG. 10",73 mg
same,percentage of water content per 2 cm of intestine,"[4]; day 14, FIG. 12",each group had an equal water content of the intestine
